Test results: patent EP0183129A1, “Quinolonecarboxylic acid derivatives” (KYORIN PHARMACEUTICAL CO., LTD., priority 1984, dated 1986)
≈ marks a conversion by molar mass, not a printed value.

Columns and labels:
[1] = tested on: Fusobacterium varium KYA 8501; experiment: In vitro antibacterial activity, MIC (standard strain); format: cell-based; conditions: Fusobacterium varium, KYA8501, Fusobacterium varium KYA 8501; 10^6 cells/ml; standard strain; read-out: MIC
[2] = tested on: Bacillus subtilis PCI 219; experiment: as above; format: cell-based; conditions: PCI219; Bacillus subtilis PCI 219; 10^6 cells/ml; standard strain; read-out: MIC
[3] = tested on: S. aureus IID 670 (Terajima); experiment: as above; format: cell-based, Staphylococcus aureus; conditions: Staphylococcus aureus, IID670, S. aureus IID 670 (Terajima); 10^6 cells/ml; standard strain; read-out: MIC
S. agalactiae 4049 = experiment: In vitro antibacterial activity, MIC (clinical isolates); format: cell-based; conditions: Streptococcus agalactiae; S. agalactiae 4049; 10^6 cells/ml; clinical isolate; read-out: MIC
[4] = tested on: Bacteroides fragilis GM 7000; experiment: In vitro antibacterial activity, MIC (standard strain); format: cell-based; conditions: GM7000; Bacteroides fragilis GM 7000; 10^6 cells/ml; standard strain; read-out: MIC
S. pyogenes IID 692 = experiment: as above; format: cell-based; conditions: Streptococcus pyogenes, IID692; S. pyogenes IID 692; 10^6 cells/ml; standard strain; read-out: MIC
[5] = tested on: Clostridium perfringens KYA 13123; experiment: microbe, parasite or virus in culture; format: cell-based; conditions: KYA13123
[6] = tested on: Enterobacter cloacae IID 977; experiment: In vitro antibacterial activity, MIC (standard strain); format: cell-based; conditions: Enterobacter cloacae, IID977, Enterobacter cloacae IID 977; 10^6 cells/ml; standard strain; read-out: MIC
E. coli ML4707 = experiment: In vivo antibacterial activity against systemic infection in mice; design: species or system mice (ICR-S); conditions: for ED50: Escherichia coli, ML4707, mice (ICR-S), oral, an hour after intraperitoneal infection, challenge dose 2.7 x 10^6 ~ 8.8 x 10^6 cfu/mouse, read-out: ED50 E. coli ML4707; for activity against gram-negative bacterial infections compared with the reference compounds: systemic infection in mice, result in words
Procedure: Experiment-2 In vivo antibacterial activity against systemic infection in mice (ICR-S)
The infections were produced by intraperitoneal injection of a suspension of the bacterial culture corresponding to the germ studied. The products were administered orally at an hour after the infection.

Shigella sonnei IID 969 = experiment: In vitro antibacterial activity, MIC (standard strain); format: cell-based; conditions: IID969, 10^6 cells/ml
Procedure: Experiment-1 In vitro antibacterial activity
The in vitro antibacterial activity against gram-positive and gram-negative bacteria has been investivated.
The minimum inhibitory concentration (MIC) was determined in accordance with the method recommended by Japan Society of Chemotherapy.

S. agalactiae 4468 = experiment: In vitro antibacterial activity, MIC (clinical isolates); format: cell-based; conditions: Streptococcus agalactiae; S. agalactiae 4468; 10^6 cells/ml; clinical isolate; read-out: MIC
S. pneumoniae IID 552 = experiment: In vitro antibacterial activity, MIC (standard strain); format: cell-based; conditions: Streptococcus pneumoniae, IID552; S. pneumoniae IID 552; 10^6 cells/ml; standard strain; read-out: MIC
[7] = tested on: Escherichia coli NIHJ JC-2; experiment: as above; format: cell-based; conditions: Escherichia coli, NIHJJC2, Escherichia coli NIHJ JC-2; 10^6 cells/ml; standard strain; read-out: MIC
[8] = tested on: Staphylococcus aureus 209 P; experiment: as above; format: cell-based; conditions: Staphylococcus aureus 209 P; 10^6 cells/ml; standard strain; read-out: MIC
[9] = tested on: Salmonella entritidis IID 604; experiment: as above; format: cell-based; conditions: IID604; Salmonella entritidis IID 604; 10^6 cells/ml; standard strain; read-out: MIC
[10] = tested on: Pseudomonas aeruginosa V-1; experiment: as above; format: cell-based; conditions: V1; Pseudomonas aeruginosa V-1; 10^6 cells/ml; standard strain; read-out: MIC
P. mirabilis IID 994 = experiment: as above; format: cell-based; conditions: Proteus mirabilis, IID994; P. mirabilis IID 994; 10^6 cells/ml; standard strain; read-out: MIC
B. fragilis 0558 = experiment: as above; format: cell-based, Bacteroides fragilis; conditions: Bacteroides fragilis, 0558, B. fragilis 0558; 10^6 cells/ml; standard strain; read-out: MIC
P. aeruginosa IID 1210 = experiment: as above; format: cell-based; conditions: Pseudomonas aeruginosa, IID1210; P. aeruginosa IID 1210; 10^6 cells/ml; standard strain; read-out: MIC
E. coli ATCC 10536 = experiment: as above; format: cell-based; conditions: Escherichia coli, ATCC10536; E. coli ATCC 10536; 10^6 cells/ml; standard strain; read-out: MIC
S. faecalis 401 = experiment: In vitro antibacterial activity, MIC (clinical isolates); format: cell-based; conditions: Enterococcus faecalis; S. faecalis 401; 10^6 cells/ml; clinical isolate; read-out: MIC
S. pneumoniae 3227 = experiment: as above; format: cell-based; conditions: Streptococcus pneumoniae; S. pneumoniae 3227; 10^6 cells/ml; clinical isolate; read-out: MIC
[11] = tested on: Morganella morganii IID 602; experiment: In vitro antibacterial activity, MIC (standard strain); format: cell-based; conditions: IID602; Morganella morganii IID 602; 10^6 cells/ml; standard strain; read-out: MIC
S. faecalis 402 = experiment: In vitro antibacterial activity, MIC (clinical isolates); format: cell-based; conditions: Enterococcus faecalis; S. faecalis 402; 10^6 cells/ml; clinical isolate; read-out: MIC
[12] = tested on: Streptococcus pyogenes S-8; experiment: In vitro antibacterial activity, MIC (standard strain); format: cell-based; conditions: S8; Streptococcus pyogenes S-8; 10^6 cells/ml; standard strain; read-out: MIC

## CCNCC1CCN(c2c(F)cc3c(=O)c(C(=O)O)cn(C4CC4)c3c2Br)C1 (stereo not drawn) [Example 17, 8-Bromo-l-cyclopropyl-7-(3-ethylaminomethyl-l-pyrrolidinyl)-6-fluoro-1,4-dihydro-4-oxo-3-quinolinecarboxylic acid]
[1]
  MIC: 0.39 µg/mL (≈ 0.862 µM)
[2]
  MIC: 0.0125 µg/mL (≈ 0.0276 µM)
[3]
  MIC: 0.025 µg/mL (≈ 0.0553 µM)
S. agalactiae 4049
  MIC: 0.05 µg/mL (≈ 0.111 µM)
[4]
  MIC: 0.1 µg/mL (≈ 0.221 µM)
S. pyogenes IID 692
  MIC: 0.05 µg/mL (≈ 0.111 µM)
[5]
  MIC: 0.1 µg/mL (≈ 0.221 µM)
[6]
  MIC: 0.1 µg/mL (≈ 0.221 µM)
E. coli ML4707
  ED50: 0.9 mg/kg
  activity against gram-negative bacterial infections compared with the reference compounds: greater activity against gram-negative bacterial infections than the reference compounds
Shigella sonnei IID 969
  MIC: 0.025 µg/mL (≈ 0.0553 µM)
S. agalactiae 4468
  MIC: 0.05 µg/mL (≈ 0.111 µM)
S. pneumoniae IID 552
  MIC: 0.05 µg/mL (≈ 0.111 µM)
[7]
  MIC: 0.0125 µg/mL (≈ 0.0276 µM)
[8]
  MIC: 0.0125 µg/mL (≈ 0.0276 µM)
[9]
  MIC: 0.1 µg/mL (≈ 0.221 µM)
[10]
  MIC: 0.39 µg/mL (≈ 0.862 µM)
P. mirabilis IID 994
  MIC: 0.025 µg/mL (≈ 0.0553 µM)
B. fragilis 0558
  MIC: ≤ 0.05 µg/mL
P. aeruginosa IID 1210
  MIC: 1.56 µg/mL (≈ 3.45 µM)
E. coli ATCC 10536
  MIC: 0.025 µg/mL (≈ 0.0553 µM)
S. faecalis 401
  MIC: 0.1 µg/mL (≈ 0.221 µM)
S. pneumoniae 3227
  MIC: 0.05 µg/mL (≈ 0.111 µM)
[11]
  MIC: 0.2 µg/mL (≈ 0.442 µM)
S. faecalis 402
  MIC: 0.1 µg/mL (≈ 0.221 µM)
[12]
  MIC: 0.05 µg/mL (≈ 0.111 µM)

## CN(C)CC1CCN(c2c(F)cc3c(=O)c(C(=O)O)cn(C4CC4)c3c2Cl)C1 (stereo not drawn) [Example 20, 8-Chloro-1-cyclopropyl-6-fluoro-1,4-dihydro-7-(3-dimethylaminomethyl-l-pyrrolidinyl)-4-oxo-3-quinolinecarboxylic acid]
[1]
  MIC: 0.78 µg/mL (≈ 1.91 µM)
[2]
  MIC: 0.025 µg/mL (≈ 0.0613 µM)
[3]
  MIC: 0.05 µg/mL (≈ 0.123 µM)
S. agalactiae 4049
  MIC: 0.1 µg/mL (≈ 0.245 µM)
[4]
  MIC: 0.1 µg/mL (≈ 0.245 µM)
S. pyogenes IID 692
  MIC: 0.1 µg/mL (≈ 0.245 µM)
[5]
  MIC: 0.1 µg/mL (≈ 0.245 µM)
[6]
  MIC: 0.1 µg/mL (≈ 0.245 µM)
E. coli ML4707
  ED50: 2.1 mg/kg
Shigella sonnei IID 969
  MIC: 0.05 µg/mL (≈ 0.123 µM)
S. agalactiae 4468
  MIC: 0.1 µg/mL (≈ 0.245 µM)
S. pneumoniae IID 552
  MIC: 0.05 µg/mL (≈ 0.123 µM)
[7]
  MIC: 0.025 µg/mL (≈ 0.0613 µM)
[8]
  MIC: 0.025 µg/mL (≈ 0.0613 µM)
[9]
  MIC: 0.1 µg/mL (≈ 0.245 µM)
[10]
  MIC: 0.39 µg/mL (≈ 0.956 µM)
P. mirabilis IID 994
  MIC: 0.05 µg/mL (≈ 0.123 µM)
B. fragilis 0558
  MIC: ≤ 0.05 µg/mL
P. aeruginosa IID 1210
  MIC: 1.56 µg/mL (≈ 3.82 µM)
E. coli ATCC 10536
  MIC: 0.025 µg/mL (≈ 0.0613 µM)
S. faecalis 401
  MIC: 0.1 µg/mL (≈ 0.245 µM)
S. pneumoniae 3227
  MIC: 0.1 µg/mL (≈ 0.245 µM)
[11]
  MIC: 0.2 µg/mL (≈ 0.49 µM)
S. faecalis 402
  MIC: 0.1 µg/mL (≈ 0.245 µM)
[12]
  MIC: 0.05 µg/mL (≈ 0.123 µM)

## CN(C)CC1CCN(c2c(F)cc3c(=O)c(C(=O)O)cn(C4CC4)c3c2F)C1 (centres unmarked) [Example 21, 1-Cyclopropyl-6,8-difluoro-1,4-dihydro-7-(3-dimethylaminomethyl-1-pyrrolidinyl)-4-oxo-3-quinolinecarboxylic acid]
[1]
  MIC: 3.13 µg/mL (≈ 8 µM)
[2]
  MIC: 0.05 µg/mL (≈ 0.128 µM)
[3]
  MIC: 0.05 µg/mL (≈ 0.128 µM)
S. agalactiae 4049
  MIC: 0.2 µg/mL (≈ 0.511 µM)
[4]
  MIC: 0.39 µg/mL (≈ 0.996 µM)
S. pyogenes IID 692
  MIC: 0.2 µg/mL (≈ 0.511 µM)
[5]
  MIC: 0.2 µg/mL (≈ 0.511 µM)
[6]
  MIC: 0.2 µg/mL (≈ 0.511 µM)
E. coli ML4707
  ED50: 1.2 mg/kg
  activity against gram-negative bacterial infections compared with the reference compounds: greater activity against gram-negative bacterial infections than the reference compounds
Shigella sonnei IID 969
  MIC: 0.05 µg/mL (≈ 0.128 µM)
S. agalactiae 4468
  MIC: 0.2 µg/mL (≈ 0.511 µM)
S. pneumoniae IID 552
  MIC: 0.2 µg/mL (≈ 0.511 µM)
[7]
  MIC: 0.05 µg/mL (≈ 0.128 µM)
[8]
  MIC: 0.05 µg/mL (≈ 0.128 µM)
[9]
  MIC: 0.1 µg/mL (≈ 0.255 µM)
[10]
  MIC: 0.39 µg/mL (≈ 0.996 µM)
P. mirabilis IID 994
  MIC: 0.1 µg/mL (≈ 0.255 µM)
B. fragilis 0558
  MIC: 0.2 µg/mL (≈ 0.511 µM)
P. aeruginosa IID 1210
  MIC: 3.13 µg/mL (≈ 8 µM)
E. coli ATCC 10536
  MIC: 0.05 µg/mL (≈ 0.128 µM)
S. faecalis 401
  MIC: 0.2 µg/mL (≈ 0.511 µM)
S. pneumoniae 3227
  MIC: 0.2 µg/mL (≈ 0.511 µM)
[11]
  MIC: 0.2 µg/mL (≈ 0.511 µM)
S. faecalis 402
  MIC: 0.2 µg/mL (≈ 0.511 µM)
[12]
  MIC: 0.1 µg/mL (≈ 0.255 µM)
